Experimental data published in patent US6355799B1, “Substituted benzene compounds, process for their preparation, and herbicidal and defoliant compositions containing them” (ISK Americas Incorporated, priority 1997, dated 2002).

Key:
Format in all cases: in vivo
[1] = system: barnyardgrass (Echinochloa crus-galli, ECHCG); assay: Pre-emerge test, greenhouse herbicide activity screening; details: pre-emerge; for Pre-emerge Herbicidal Activity ECHCG (phytotoxicity rating, scale 0-100): rated 14 days after application, 0 = no damage, 100 = complete death; for phytotoxicity rating ECHCG: 14 days after application, rating scale 0-100
Procedure, shortened: (§1)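 Compounds in acetone were track-sprayed at 15–1000 g ai/ha: pre-emergence onto soil sown the previous day, then top-watered to incorporate and later bottom-watered; post-emergence onto 2–3 leaf plants with 0.25% v/v surfactant, bottom-watered only. Ratings on a 0–100 phytotoxicity scale were taken at day 14.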

[2] = system: cocklebur (Xanthium strumarium, XANST); assay: as above; details: 14 days after application, rating scale 0-100
[3] = system: common ragweed (Ambrosia artemisizfolia L., AMBEL); assay: as above; details: pre-emerge, rated 14 days after application, 0 = no damage, 100 = complete death
Procedure, shortened: as §1

[4] = system: green foxtail (Setaria viridis, SETVI); assay: as above; details: pre-emerge; for Pre-emerge Herbicidal Activity SETVI (phytotoxicity rating, scale 0-100): rated 14 days after application, 0 = no damage, 100 = complete death; for phytotoxicity rating SETVI: 14 days after application, rating scale 0-100
Procedure, shortened: as §1

[5] = system: ivyleaf morningglory (Ipomoea hederacea, IPOHE); assay: as above; details: pre-emerge; for Pre-emerge Herbicidal Activity IPOHE (phytotoxicity rating, scale 0-100): rated 14 days after application, 0 = no damage, 100 = complete death; for phytotoxicity rating IPOHE: 14 days after application, rating scale 0-100
Procedure, shortened: as §1

[6] = system: johnsongrass (Sorghum halepense, SORHA); assay: as above; details: pre-emerge; for Pre-emerge Herbicidal Activity SORHA (phytotoxicity rating, scale 0-100): rated 14 days after application, 0 = no damage, 100 = complete death; for phytotoxicity rating SORHA: 14 days after application, rating scale 0-100
Procedure, shortened: as §1

[7] = system: lambsquarters (Chenopodium album, CHEAL); assay: as above; details: pre-emerge; for Pre-emerge Herbicidal Activity CHEAL (phytotoxicity rating, scale 0-100): rated 14 days after application, 0 = no damage, 100 = complete death; for phytotoxicity rating CHEAL: 14 days after application, rating scale 0-100
Procedure, shortened: as §1

[8] = system: large crabgrass (Digitaria sanguinalis, DIGSA); assay: as above; details: pre-emerge; for Pre-emerge Herbicidal Activity DIGSA (phytotoxicity rating, scale 0-100): rated 14 days after application, 0 = no damage, 100 = complete death; for phytotoxicity rating DIGSA: 14 days after application, rating scale 0-100
Procedure, shortened: as §1

[9] = system: sicklepod (Cassia obtusifolia, CASOB); assay: as above; details: pre-emerge; for Pre-emerge Herbicidal Activity CASOB (phytotoxicity rating, scale 0-100): rated 14 days after application, 0 = no damage, 100 = complete death; for phytotoxicity rating CASOB: 14 days after application, rating scale 0-100
Procedure, shortened: as §1

[10] = system: common ragweed (Ambrosia artemisizfolia L., AMBEL); assay: Post-emerge test, greenhouse herbicide activity screening; details: phytotoxicity rating 0-100 (0 no damage, 100 complete death), 14 days after application
Procedure, shortened: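 Applied at 15–1000 g ai/ha from acetone in 187 l/ha spray volume. Post-emergence applications included 0.25% v/v non-ionic surfactant and reached plants sown 8–21 days before. Pre-emergence applications were incorporated by surface watering. Efficacy or crop damage was rated on a 0–100 scale after 14 days.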

weed species = assay: Standard greenhouse herbicide activity screening, overall statements on weeds; details: comparison with compound 2 of Japanese Pat. No. Toku Kai Hei 5-25144 (Table XIX)
Text: A standard greenhouse herbicide activity screening system was used to evaluate the herbicidal efficacy and crop safety of these test compounds. Seven broadleaf weed species including redroot pigweed (Amaranthus retroflexus, AMARE, velvetleaf (Abutilon theophrasti, ABUTH), sicklepod (Cassia obtusifolia, CASOB), ivyleaf morningglory (Ipomoea hederacea, IPOHE), lambsquarters (Chenopodium album, CHEAL), common ragweed (Ambrosia artemisizfolia L., AMBEL), and cocklebur (Xanthium strumarium, XANST) were used as test species. Four grass weed species including green foxtail (Setaria viridis, SETVI), barnyardgrass (Echinochloa crus-galli, ECHCG), johnsongrass (Sorghum halepense, SORHA), and large crabgrass (Digitaria sanguinalis, DIGSA) were also used. In addition, three crop species, field corn (Zea mays L., var. Dekalb 535, CORN), soybean (Glycine max L., var. Pella 86, SOY), and is upland rice (Oryza sp., var. Tebonnet, RICE) were included.
All plants were grown in 10 cm square plastic pots which were filled with a sandy loam soil mix. For pre-emerge tests, seeds were planted one day prior to application of the test compounds. For post-emerge tests, seeds were planted 8-21 days prior to the test to allow emergence and good foliage development prior to application of the test substances. […]
At 14 days after application of the test materials, phytotoxicity ratings were recorded. […]

COc1c(Cl)cc(F)c(-n2c(=O)cc(C(F)(F)F)n(C)c2=O)c1N [Compound 1-4, 3-(2-amino-4-chloro-6-fluoro-3-methoxyphenyl)-1-methyl-6-trifluoromethyl-2,4(1H, 3H)-pyrimidinedione]
80: phytotoxicity rating SETVI ([4]; 15.6 g ai/ha) | phytotoxicity rating SETVI ([4]; 31.3 g ai/ha) | phytotoxicity rating CASOB ([9]; 62.5 g ai/ha)
10: phytotoxicity rating ECHCG ([1]; 31.3 g ai/ha) | phytotoxicity rating XANST ([2]; 31.3 g ai/ha)
50: phytotoxicity rating XANST ([2]; 62.5 g ai/ha) | phytotoxicity rating XANST ([2]; 125 g ai/ha) | phytotoxicity rating IPOHE ([5]; 31.3 g ai/ha) | Post-emerge Herbicidal Activity AMBEL ([10]; 63 g ai/ha)
60: phytotoxicity rating SETVI ([4]; 7.8 g ai/ha) | phytotoxicity rating CHEAL ([7]; 7.8 g ai/ha)
85: Pre-emerge Herbicidal Activity SORHA (phytotoxicity rating, scale 0-100) ([6]; 63 g ai/ha)
20: phytotoxicity rating XANST ([2]; 15.6 g ai/ha)
0: phytotoxicity rating ECHCG ([1]; 3.9 g ai/ha) | phytotoxicity rating ECHCG ([1]; 7.8 g ai/ha) | phytotoxicity rating ECHCG ([1]; 15.6 g ai/ha) | phytotoxicity rating XANST ([2]; 3.9 g ai/ha) | phytotoxicity rating XANST ([2]; 7.8 g ai/ha) | phytotoxicity rating SETVI ([4]; 3.9 g ai/ha) | phytotoxicity rating IPOHE ([5]; 3.9 g ai/ha) | phytotoxicity rating IPOHE ([5]; 7.8 g ai/ha) | phytotoxicity rating IPOHE ([5]; 15.6 g ai/ha) | phytotoxicity rating SORHA ([6]; 3.9 g ai/ha) | phytotoxicity rating SORHA ([6]; 7.8 g ai/ha) | phytotoxicity rating SORHA ([6]; 15.6 g ai/ha) | phytotoxicity rating DIGSA ([8]; 3.9 g ai/ha) | phytotoxicity rating CASOB ([9]; 3.9 g ai/ha) | phytotoxicity rating CASOB ([9]; 31.3 g ai/ha)
100: Pre-emerge Herbicidal Activity ECHCG (phytotoxicity rating, scale 0-100) ([1]; 63 g ai/ha) | Pre-emerge Herbicidal Activity ECHCG (phytotoxicity rating, scale 0-100) ([1]; 250 g ai/ha) | phytotoxicity rating ECHCG ([1]; 250 g ai/ha) | Pre-emerge Herbicidal Activity AMBEL (phytotoxicity rating, scale 0-100) ([3]; 63 g ai/ha) | Pre-emerge Herbicidal Activity AMBEL (phytotoxicity rating, scale 0-100) ([3]; 250 g ai/ha) | Pre-emerge Herbicidal Activity SETVI (phytotoxicity rating, scale 0-100) ([4]; 63 g ai/ha) | Pre-emerge Herbicidal Activity SETVI (phytotoxicity rating, scale 0-100) ([4]; 250 g ai/ha) | phytotoxicity rating SETVI ([4]; 62.5 g ai/ha) | phytotoxicity rating SETVI ([4]; 125 g ai/ha) | phytotoxicity rating SETVI ([4]; 250 g ai/ha) | Pre-emerge Herbicidal Activity IPOHE (phytotoxicity rating, scale 0-100) ([5]; 63 g ai/ha) | Pre-emerge Herbicidal Activity IPOHE (phytotoxicity rating, scale 0-100) ([5]; 250 g ai/ha) | phytotoxicity rating IPOHE ([5]; 125 g ai/ha) | phytotoxicity rating IPOHE ([5]; 250 g ai/ha) | Pre-emerge Herbicidal Activity SORHA (phytotoxicity rating, scale 0-100) ([6]; 250 g ai/ha) | phytotoxicity rating SORHA ([6]; 250 g ai/ha) | Pre-emerge Herbicidal Activity CHEAL (phytotoxicity rating, scale 0-100) ([7]; 63 g ai/ha) | Pre-emerge Herbicidal Activity CHEAL (phytotoxicity rating, scale 0-100) ([7]; 250 g ai/ha) | phytotoxicity rating CHEAL ([7]; 15.6 g ai/ha) | phytotoxicity rating CHEAL ([7]; 31.3 g ai/ha) | phytotoxicity rating CHEAL ([7]; 62.5 g ai/ha) | phytotoxicity rating CHEAL ([7]; 125 g ai/ha) | phytotoxicity rating CHEAL ([7]; 250 g ai/ha) | Pre-emerge Herbicidal Activity DIGSA (phytotoxicity rating, scale 0-100) ([8]; 63 g ai/ha) | Pre-emerge Herbicidal Activity DIGSA (phytotoxicity rating, scale 0-100) ([8]; 250 g ai/ha) | phytotoxicity rating DIGSA ([8]; 125 g ai/ha) | phytotoxicity rating DIGSA ([8]; 250 g ai/ha) | Pre-emerge Herbicidal Activity CASOB (phytotoxicity rating, scale 0-100) ([9]; 250 g ai/ha) | phytotoxicity rating CASOB ([9]; 15.6 g ai/ha) | phytotoxicity rating CASOB ([9]; 250 g ai/ha)
90: phytotoxicity rating XANST ([2]; 250 g ai/ha) | phytotoxicity rating IPOHE ([5]; 62.5 g ai/ha) | Pre-emerge Herbicidal Activity CASOB (phytotoxicity rating, scale 0-100) ([9]; 63 g ai/ha) | Post-emerge Herbicidal Activity AMBEL ([10]; 250 g ai/ha)
30: phytotoxicity rating ECHCG ([1]; 62.5 g ai/ha) | phytotoxicity rating SORHA ([6]; 31.3 g ai/ha) | phytotoxicity rating CHEAL ([7]; 3.9 g ai/ha) | phytotoxicity rating DIGSA ([8]; 7.8 g ai/ha) | phytotoxicity rating DIGSA ([8]; 15.6 g ai/ha) | phytotoxicity rating DIGSA ([8]; 31.3 g ai/ha) | phytotoxicity rating CASOB ([9]; 7.8 g ai/ha)
40: phytotoxicity rating SORHA ([6]; 62.5 g ai/ha)
95: phytotoxicity rating ECHCG ([1]; 125 g ai/ha) | phytotoxicity rating SORHA ([6]; 125 g ai/ha) | phytotoxicity rating DIGSA ([8]; 62.5 g ai/ha) | phytotoxicity rating CASOB ([9]; 125 g ai/ha)
high level of activity: pre-emerge herbicidal activity (weed species)
